Data: EP4678643A1, “KRAS INHIBITOR COMPOUND, PHARMACEUTICAL COMPOSITION THEREOF, AND USE THEREOF” (Sunshine Lake Pharma Co., Ltd., priority 2023, dated 2024)
Where two headings read alike, the source gives them in different places.

Tests used:
[1] = tested on: pERK in AGS cells (KRAS G12D); experiment: Inhibitory effect on intracellular pERK by In-Cell Western assay, AGS; type: cell-based; settings: Homo sapiens, AGS, pERK inhibition, compound incubation 3 h, read-out: AGS, IC50 (nM) KRAS p.G12D
Experimental: (§1) 1. Determination of Inhibitory Effect on Intracellular pERK by In-Cell Western Assay
(§2) (1) On the first day, the following cells were revived and cultured with the corresponding culture medium and incubated at 37 °C, 5% CO2 until confluence.
(§3) (2) On the third day, the culture medium was removed, the cells were rinsed once with DPBS, 2 mL of TrypLE™ trypsin was added for digestion, and the cells were placed at room temperature until the cells detached. (3) 5 mL fresh culture medium was added to resuspend cells to terminate the digestion, and the cells were gently pipetted and centrifuged at 1000 rpm for 5 minutes at room temperature. (4) The supernatant was removed, and 5 mL fresh culture medium was added to resuspend the cells and count cells. (5) The cells were plated in a 384-well plate with appropriate cell concentration by adjusting with complete culture medium and incubated at 37 °C, 5% CO2 for overnight. (6) 200 nL of the prepared serial dilution compound (DMSO final concentration was 0.5%) was added and incubated at 37 °C, CO2 for 3 h (HPAC cell lines for 1 h). (7) The cells were fixed. (8) The cells were washed twice with PBS. (9) The blocking solution was added and the cells were incubated at room temperature for 1 h. (10) The blocking solution was removed, and the primary antibody (phospho-ERK Rabbit mAb + GAPDH (D4C6R) Mouse mAb) was added and the cells were incubated at 4 °C for overnight. (11) The cells were washed twice with PBST (PBS + 0.05% Tween 20) for 2 minutes each time. (12) PBST was removed and secondary antibody (IRDye 800CW Goat anti-Rabbit IgG (H+L) + IRDye 680RD Goat anti Mouse IgG (H+L)) was added and incubated away from light at room temperature. (14) Secondary antibody was discarded and the cell was washed twice with PBST, 2 minutes each time. (15) 384-well plate was inverted and centrifuged at 1000 rpm at room temperature for 1 minute, and the 384-well plate was scanned with Odyssey CLx.

[2] = tested on: pERK in HCT 116 cells (KRAS p.G13D); experiment: Inhibitory effect on intracellular pERK by In-Cell Western assay, HCT 116; type: cell-based; settings: Homo sapiens, pERK inhibition, compound incubation 3 h
Experimental: as §1, §2
as §3, with “CLx. (16) Data analysis: • a) Assay stability check was peformed by using DMSO and reference control data: [formula] [formula] • b) nonlinear fitting of Compound IC50: Y = Bottom + (Top−Bottom)/(1+10^(∧)((LogIC50−X)×HillSlope)). [formula]” for “CLx.”

[3] = tested on: pERK in H358 cells (KRAS p.G12C); experiment: Inhibitory effect on intracellular pERK by In-Cell Western assay, H358; type: cell-based; settings: Homo sapiens, NCI-H358, pERK inhibition, compound incubation 3 h
Experimental: as §1, §2
as §3, with “CLx. (16) Data analysis: • a) Assay stability check was peformed by using DMSO and reference control data: [formula] [formula] • b) nonlinear fitting of Compound IC50: Y = Bottom + (Top−Bottom)/(1+10^(∧)((LogIC50−X)×HillSlope)). [formula]” for “CLx.”

[4] = tested on: pERK in MKN1 cells (KRAS WTdep); experiment: Inhibitory effect on intracellular pERK by In-Cell Western assay, MKN1; type: cell-based; settings: Homo sapiens, MKN-1, pERK inhibition, compound incubation 3 h
Experimental: as §1, §2
as §3, with “CLx. (16) Data analysis: • a) Assay stability check was peformed by using DMSO and reference control data: [formula] [formula] • b) nonlinear fitting of Compound IC50: Y = Bottom + (Top−Bottom)/(1+10^(∧)((LogIC50−X)×HillSlope)). [formula]” for “CLx.”

[5] = tested on: pERK in A549 cells (KRAS p.G12S); experiment: Inhibitory effect on intracellular pERK by In-Cell Western assay, A549; type: cell-based; settings: Homo sapiens, pERK inhibition, compound incubation 3 h
Experimental: as §1, §2
as §3, with “CLx. (16) Data analysis: • a) Assay stability check was peformed by using DMSO and reference control data: [formula] [formula] • b) nonlinear fitting of Compound IC50: Y = Bottom + (Top−Bottom)/(1+10^(∧)((LogIC50−X)×HillSlope)). [formula]” for “CLx.”

[6] = Pharmacokinetic evaluation by intravenous injection or oral gavage in mice
Experimental: Pharmacokinetic evaluation of the compounds of the present invention by intravenous injection or oral gavage in mice
The inventors conducted a pharmacokinetic evaluation of the compounds of this invention in mice.
The compounds of the present invention were administered to test animals in the form of a solution of 5% DMSO + 30% PEG400 + 65% saline, 10% DMSO + 10% Kolliphor HS15 + 80% Saline, 10% DMSO + 89% (25% SBE-B-CD) + (2% HCl), 20% PEG400 + 80% sterile water for injection, or 10% DMA + 10% HS15 + 30% PEG400 + 50% sterile water for injection. The animals were fasted for 12 hours before administration and had free access to water. For the intravenous administration group, the dose was 2 mg/kg/day, qd. Venous blood samples (approximately 0.15 mL) were collected at the following time points after administration: 0.083, 0.25, 0.5, 1.0, 2.0, 5.0, 7.0 and 24 hours. EDTA-K2 was pre-added to the blood collection tube as an anticoagulant. Blood samples were centrifuged at 12,000 rpm for 2 minutes, and plasma was collected and stored at -20°C or -70°C. For the intravenous administration group, the dose was 5 mg/kg/day, qd. Venous blood samples (approximately 0.15 mL) were collected at the following time points after administration: 0.25, 0.5, 1.0, 2.0, 5.0, 7.0 and 24 hours. EDTA-K2 was pre-added to the blood collection tube as an anticoagulant. Blood samples were centrifuged at 12,000 rpm for 2 minutes, and plasma was collected and stored at -20°C or -70°C.
The collected plasma samples were processed (frozen plasma was thawed at room temperature and vortexed for 15 seconds. 10-20 µL of plasma was added to 120-150 µL of acetonitrile solution containing the internal standard and vortexed for 5 minutes. The sample was centrifuged at 4,000 rpm for 5 minutes. 100 µL of the supernatant was added to 120-150 µL of methanol/water (v/v = 1/1) and mixed). The concentrations of the compounds in the plasma were analyzed by LC-MS/MS.

SMILES | IC50 ([1]; 3 h) | IC50 [2] | IC50 [3] | IC50 [4] | IC50 [5] | also measured
C#Cc1c(F)ccc2cc(O)cc(-c3nc(C#CC)c4c(N5CCCOCC5)nc(OC[C@@H]5C[C@@H](F)CN5C)nc4c3F)c12 [Compound 16] | 8.1 nM | – | – | – | – | –
C#Cc1c(F)ccc2cc(O)cc(-c3nc(C#C)c4c(N5CCCOCC5)nc(OCC56CC(=C)CN5CC(=C)C6)nc4c3F)c12 [Compound 10] | 0.8 nM | 6.2 nM | 0.7 nM | 1.6 nM | 1.4 nM | –
C#Cc1c(F)ccc2cc(O)cc(-c3nc(C#C)c4c(N5CCCOCC5)nc(OC[C@@]56CCCN5C[C@H](F)C6)nc4c3F)c12 [Compound 7] | 0.6 nM | 11.6 nM | 1.3 nM | 3.3 nM | 5.7 nM | –
C#Cc1c(F)ccc2cc(O)cc(-c3nc(C#CC)c4c(N5CCCCC(F)C5)nc(OC[C@@]56CCCN5C[C@H](F)C6)nc4c3F)c12 (stereo partly shown) [Compound 25] | – | 7.9 nM | 0.8 nM | 3 nM | 2.3 nM | IC50 [1]: 0.8 nM; F_AUCT NF ([6]; mice, 5 mg/kg/day ig administration versus 2 mg/kg/day iv): 23%; AUC(0-inf) ([6]; mouse, plasma, iv, 2 mg/kg/day): 10800 ng·h/mL; AUC(0-t) ([6]; mouse, plasma, iv, 2 mg/kg/day): 10600 ng·h/mL; Cmax ([6]; mouse, plasma, iv, 2 mg/kg/day): 9950 ng/mL; MRT last ([6]; mouse, plasma, iv, 2 mg/kg/day): 1.3 h; Tmax ([6]; mouse, plasma, iv, 2 mg/kg/day): 0.083 h; clearance ([6]; mouse, plasma, iv, 2 mg/kg/day): 3.2 mL/min/kg; half-life ([6]; mouse, plasma, iv, 2 mg/kg/day): 1.2 h; AUC(0-inf) ([6]; mouse, plasma, po, 5 mg/kg/day): 6140 ng·h/mL; AUC(0-t) ([6]; mouse, plasma, po, 5 mg/kg/day): 5960 ng·h/mL; Cmax ([6]; mouse, plasma, po, 5 mg/kg/day): 2660 ng/mL; MRT last ([6]; mouse, plasma, po, 5 mg/kg/day): 1.7 h; Tmax ([6]; mouse, plasma, po, 5 mg/kg/day): 0.42 h; half-life ([6]; mouse, plasma, po, 5 mg/kg/day): 1.3 h; pharmacokinetic properties in mice ([6]; result in words): good pharmacokinetic properties
C#Cc1c(F)ccc2cc(O)cc(-c3nc(C#CC)c4c(N5CCCOCC5)nc(OCC56CCCN5CC(F)(F)C6)nc4c3F)c12 (stereo not shown) [Compound 15] | 15 nM | – | – | – | – | –
C#Cc1c(F)ccc2cc(O)cc(-c3nc(C#CC)c4c(N5CCCOCC5)nc(OC[C@@H]5CCCN5C)nc4c3F)c12 [Compound 12] | 5.8 nM | – | – | – | – | –
C#Cc1nc(-c2cc(O)cc3ccc(F)c(CC)c23)c(F)c2nc(OC[C@@]34CCCN3C[C@H](F)C4)nc(N3CCCOCC3)c12 [Compound 8] | 7.1 nM | – | – | – | – | –
C#Cc1c(F)ccc2cc(O)cc(-c3nc(C#CC)c4c(N5CCCOCC5)nc(OCC56CCCN5CCC6)nc4c3F)c12 [Compound 11] | 2.6 nM | 28.6 nM | 2 nM | 7.4 nM | 20.2 nM | –

Continued, in another order:

IC50 ([1]; 3 h) | IC50 [2] | IC50 [3] | IC50 [4] | IC50 [5] | SMILES | also measured
4.1 nM | – | – | – | – | CCC#Cc1nc(-c2cc(O)cc3ccc(F)c(CC)c23)c(F)c2nc(OC[C@@]34CCCN3C[C@H](F)C4)nc(N3CCCCC(=O)C3)c12 [Compound 33] | –
5.2 nM | 19.5 nM | 2 nM | 4.5 nM | 5.1 nM | C#Cc1c(F)ccc2cc(O)cc(-c3nc(C#CC)c4c(N5CCCCC(F)(F)C5)nc(OC[C@@]56CCCN5C[C@H](F)C6)nc4c3F)c12 [Compound 27] | –
1.6 nM | 5.4 nM | 0.4 nM | 1.41 nM | 1.2 nM | C#Cc1c(F)ccc2cc(O)cc(-c3nc(C#CC)c4c(N5CCOCC(F)(F)C5)nc(OC[C@@]56CCCN5C[C@H](F)C6)nc4c3F)c12 [Compound 38] | –
1.4 nM | 15.2 nM | 2.2 nM | 3.6 nM | 6.2 nM | C#Cc1c(F)ccc2cc(O)cc(-c3nc(C#CC)c4c(N5CCCCCC5)nc(OC[C@@]56CCCN5C[C@H](F)C6)nc4c3F)c12 [Compound 29] | –
